Assays:
GR = conditions: cited from earlier work
[1] = system: GFP-ER (human estrogen receptor); assay: Ligand effect on nuclear localization of GFP-ER in MCF7 cells; format: cell-based; conditions: GFP-ER already partially activated by medium
Procedure: GFP-fusion plasmids of the invention are tested for expression and subcellular localization by transfection into several mammalian cells. For example, GFP-GR plasmids were analyzed in C127 (mouse) cells, HeLa (human cervical cancer) cells, and MCF7 (human breast adenocarcinoma) cells (ATCC accession number HTB22). GFP-ER plasmids were analyzed in 1471.1 cells, C127 (mouse) cells, MCF7 (human breast adenocarcinoma) cells, and MDA-MB-231 (human breast adenocarcinoma) cells (ATCC accession number HTB 26). Localization is observed in the absence of added hormone in either-5% or 10% charcoal-stripped fetal calf serum. Cells having GFP-fusion plasmids are then treated with a selected ligand, and subcellular localization and quantitative observations are made.
Assay for Ligand Effects: GFP-fusion plasmids of the invention are assayed for effects of a selected ligand on subcellular localization by transfection into selected cells. C127 (mouse) cells, HeLa (human cervical cancer) cells, and MCF7 (human breast adenocarcinoma) cells (ATCC accession number HTB22) were each transfected with GFP-GR plasmids and with GFP-ER plasmids. Localization is first observed in the absence of added hormone in either 5% or 10% charcoal-stripped fetal calf serum. Cells having GFP-fusion plasmids are then treated with a selected ligand, and subcellular localization and quantitative observations are made. […]

## C[C@]12CC[C@@H]3c4ccc(O)cc4CC[C@H]3[C@@H]1CC[C@@H]2O [17-β-estradiol]
GR
  affinity for GR: no affinity
[1]
  nuclear GFP-ER signal after addition of agonist: further concentration of nuclear signals on nuclear structures

Reference: patent US8058395B2, “Chimeric protein comprising a green fluorescent ptotein fused to a transcription factor” (The United States of America as represented by the …, priority 1995, dated 2011)
